Measured values taken from US9587225B2, “Low-molecular-compound for improving production, maintenance and proliferation of pluripotent stem cells, composition comprising the same, and culture method” (KOREA RESEARCH INSTITUTE OF BIOSCIENCE AND BIOTECHNOLOGY, priority 2012, dated 2017).

Assays:
human skin fibroblasts = experiment: Cell growth (total number of cells) during reprogramming culture; format: cell-based
Description: In still another example of the present invention, whether the novel compound RSC-133 has the effect of promoting the growth and proliferation of cells in a culture process for inducing reprogramming was examined by measuring the total number of cells at various time points (FIG. 11). […] In addition, a change in the proliferation of cells during a culture process for inducing reprogramming was examined by a BrdU assay.
FIG. 11 is a graph showing the effect of RSC-133 on cell growth during a reprogramming process. The results were obtained in the same manner as those in FIG. 10. The values shown on the graph are mean values. The data ate are expressed as mean±SD (n=3).
FIG. 12 is a graph showing the results of examining the effect of RSC-133 on the growth of human skin fibroblasts or human skin fibroblasts infected with a reprogramming factor (OSKM) virus. The values shown on the graph are mean values. The data are mean±SD (n=3).
In addition, the growth rate of cells is associated with the self-renewal ability of embryonic stem cells. Thus, whether the novel compound RSC-133 can promote cell growth during reprogramming was examined. As a result, it could be seen that when reprogramming was induced while the cells were treated with RSC-133, the growth rate of the cells increased by about 1.7 times compared to that of the control group (FIG. 11). […]

H3K9ace = experiment: H3K9 acetylation during reprogramming (immunocytochemistry, Western blot); format: cell-based, human
Description: The left panel is a set of photographs showing the results obtained by inducing the reprogramming of human skin fibroblasts, culturing the cells for 10 days in the presence or absence of RSC-133, and then analyzing the cells by immunocytochemistry using monoclonal antibodies for H3K9ace and an undifferentiation marker (Nanog) (scale bar=200 μm). […] H3 protein was used as an internal control.
For immunostaining, cells were seeded on Matrigel-coated 4-well Lab-Tek chamber slides (Nunc, Naperville, Ill.) and cultured for 5 days under the indicated conditions. The cells were fixed in 4% paraformaldehyde at room temperature for 15 minutes, and then washed with PBS/0.2% BSA. Next, the cells were passed through PBS/0.2% BSA/0.1% Triton X-100 for 15 minutes, and then incubated with 4% normal donkey serum (Molecular Probes, Eugene, Oreg., USA) in PBS/0.2% BSA at room temperature for 1 hour. The cells were diluted with PBS/0.2% BSA, and then reacted with primary antibody at 4° C. for 2 hours. After washing, the cells were reacted with FITC- or Alexa594-conjugated secondary antibody (Invitrogen) in PBS/0.2% BSA at room temperature for 1 hour. The cells were counter-stained with 10 μg/ml DAPI.
Most of various low-molecular-weight compounds known to be involved in the reprogramming process are involved genome methylation patterns, histone acetylation patterns or major signaling mechanisms. […]

[1] = tested on: H9 human embryonic stem cells; experiment: Maintenance of undifferentiated state of hESC in unconditioned medium; format: cell-based
Description: It was observed that, when H9 human embryonic stem cells (hESs) were cultured in unconditioned medium (UM), the differentiation thereof was induced, but when the cells were cultured in UM containing RSC-133, the degree of induced differentiation was inhibited, and pluripotency was acquired again. The efficiency of acquisition of pluripotency was measured by calculating the number of colonies showing AP activity. The values shown on the graph are mean values. The data are expressed as mean±SD (n=3) (*P<0.01, **P<0.005, by t-test).
Human skin fibroblasts (hFFs) were used as a negative control group. H3 and GAPDH proteins were used as internal controls.
Human embryonic stem cell (hESC) H9 (NIH Code, WA09; WiCell Research Institute, Madison, Wis.) and reprogrammed stem cells (hiPSC) were generally cultured in hESC culture medium (composed of 80% DMEM/F12, 20% knockout serum replacement (KSR, Invitrogen, Carlsbad, Calif.), 1% non-essential amino acids (NEAR, Invitrogen), 1 mM L-glutamine (Invitrogen), 0.1 mM β-mercaptoethanol (Sigma, St. Louis, Mo.) and 6 ng/ml bFGF (basic fibroblast growth factor, Invitrogen)) on γ-irradiated MEFs (mouse embryonic fibroblasts). The cells were subcultured with 1 mg/ml collagenase IV (Invitrogen) at intervals of 5-6 days. Human newborn foreskin fibroblasts (hFF, ATCC, catalog number CRL-2097; American Type Culture Collection, Manassas, Va.) were cultured in DMEM containing 10% FBS (fetal bovine serum, Invitrogen), 1% non-essential amino acid, 1 mM L-glutamine and 0.1 mM β-mercaptoethanol.
When human embryonic stem cells (H9) are cultured in unconditioned medium (UM), their differentiation is induced. […] As a positive control group, embryonic stem cells cultured for 6 days in MEF-conditioned medium (CM) effective for maintenance of an undifferentiated state were used. The efficiency of maintenance of an undifferentiated state and inhibition of differentiation was determined by measuring the number of colonies showing AP activity (the lower panel of FIG. 28). […]

NC(=O)c1cccc(NC(=O)/C=C/c2c[nH]c3ccccc23)c1 [RSC-133, 3-[3-(1H-indol-3-yl)-acrylamido]-benzamide]
growth of cells, reprogramming not induced (human skin fibroblasts; human skin fibroblasts or OSKM-transfected fibroblasts, reprogramming not induced (FIG. 12)): increased the growth of the cells
increase of growth rate of the cells during reprogramming (human skin fibroblasts; reprogramming induced, compared to control group (FIG. 11)): about 1.7 times
H3K9ace level by Western blot (H3K9ace; H3 as internal control (FIG. 18 right)): The same results were also obtained
ratio of undifferentiated cells having a high H3K9ace level (immunocytochemistry) (H3K9ace; cultured 10 days in presence or absence of RSC-133 (FIG. 18 left)): higher in the test group treated with RSC-133 than in the control group
induced differentiation and pluripotency of hESC in unconditioned medium (AP-positive colonies) ([1]; H9 cultured 6 days in UM supplemented with RSC-133 (FIG. 28)): the degree of induced differentiation was inhibited and pluripotency was re-acquired
expression of Oct4 and H3K9ace (Western blot) ([1]; H9 in UM containing RSC-133 vs CM (FIG. 29)): at levels similar to those in the human embryonic stem cells cultured in CM
expression of pluripotency-specific markers Oct4 and Tra1-81 (immunostaining) ([1]; H9 in UM supplemented with RSC-133 vs CM): expressed at levels similar to those of human embryonic stem cells cultured in CM
